The viability is a read-out of living cells in per cent, often relative to untreated cells.

Data set [1] deals with T1, FGF14:Nav1.6 C-tail complex (Homo sapiens, UniProt Q92915+Q9UQD0).
T1 construct: polymerase chain reaction (PCR) amplification of the FGF14 open reading frame (nt 1–855); C-terminal fragment of Nav1.6 (amino acids 1763–1976) fused with CD4ΔC-tail (amino acids 1–395); expressed in transfected cells
Put plainly: Split-luciferase complementation assay (LCA) in Clone V double stable HEK293 cells. The conditions noted are these: for Split Luciferase Assay Z-score Set 1 / Split Luciferase Assay Z-score Set 2: normalized to on-plate 0.3% DMSO controls. Format: cell-based.

Data set [2] relates to Clone V cells. The following applies: human.
Data set [3] can be described thus: in vitro. The following applies: human.
For data set [4], the target named is full-length P. pyralis luciferase (Photinus pyralis, UniProt P08659, K549A/L550V/N119G/N50D/S548I). Format: cell-based. The following applies: CC_NCI screening; normalized to on-plate 0.3% DMSO controls.
full-length P. pyralis luciferase, sequence (P08659 whole entry N50D/N119G/S548I/K549A/L550V, looked up): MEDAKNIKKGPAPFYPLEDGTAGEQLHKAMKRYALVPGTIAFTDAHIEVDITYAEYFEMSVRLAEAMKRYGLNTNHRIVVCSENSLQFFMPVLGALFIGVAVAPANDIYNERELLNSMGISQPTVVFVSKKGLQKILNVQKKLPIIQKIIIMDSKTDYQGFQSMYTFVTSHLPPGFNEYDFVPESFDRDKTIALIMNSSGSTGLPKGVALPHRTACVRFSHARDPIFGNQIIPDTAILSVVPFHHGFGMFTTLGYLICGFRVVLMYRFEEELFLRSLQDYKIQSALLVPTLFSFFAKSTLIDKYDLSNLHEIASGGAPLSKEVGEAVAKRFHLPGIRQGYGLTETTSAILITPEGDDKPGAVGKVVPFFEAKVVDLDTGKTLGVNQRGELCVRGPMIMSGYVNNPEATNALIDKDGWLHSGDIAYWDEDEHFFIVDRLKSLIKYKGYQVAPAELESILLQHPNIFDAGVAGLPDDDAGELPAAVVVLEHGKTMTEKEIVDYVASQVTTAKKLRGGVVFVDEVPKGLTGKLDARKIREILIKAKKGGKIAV
[5] abbreviates: CC_NCI screening, biological replicate Set 1.
The mark [6] stands for this setting: CC_NCI screening, biological replicate Set 1, normalized to on-plate 0.3% DMSO controls (n=16 per plate).
[7] abbreviates: CC_NCI screening, biological replicate Set 2.
The mark [8] stands for this setting: CC_NCI screening, biological replicate Set 2, normalized to on-plate 0.3% DMSO controls (n=16 per plate).
[9] abbreviates: average of Set 1 and Set 2, normalized to 0.3% DMSO controls.

Structures can show the parent of a compound that is named as a salt. Where two headings read alike, the source gives them in different places.

T1 sequence (Q92915 1-252 isoform Q92915-2): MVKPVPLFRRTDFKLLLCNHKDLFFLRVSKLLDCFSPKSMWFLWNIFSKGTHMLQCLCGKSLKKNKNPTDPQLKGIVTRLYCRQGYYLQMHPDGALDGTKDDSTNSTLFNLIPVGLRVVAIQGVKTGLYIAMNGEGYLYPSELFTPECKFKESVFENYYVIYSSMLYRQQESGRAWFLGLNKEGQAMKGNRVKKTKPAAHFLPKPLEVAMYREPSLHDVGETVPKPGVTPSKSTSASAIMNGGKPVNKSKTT
T1 sequence (Q9UQD0 1763-1976 limits assumed): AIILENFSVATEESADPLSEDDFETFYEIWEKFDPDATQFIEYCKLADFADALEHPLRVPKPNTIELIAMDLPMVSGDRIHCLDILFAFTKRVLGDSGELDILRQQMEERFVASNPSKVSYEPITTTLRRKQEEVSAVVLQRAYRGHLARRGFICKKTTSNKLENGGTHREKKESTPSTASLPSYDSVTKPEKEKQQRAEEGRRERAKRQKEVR

For `Clc1ccc(C(c2ccccc2Cl)C(Cl)Cl)cc1` (stereo not drawn) [Mitotane], the “Split Luciferase Assay Z-score Set 1” value in data set [1] (setting [5]) was -6.12. For the same compound, the “Split Luciferase Assay % Lum Set 1” value in data set [1] (setting [6]) is given as 24.24%. Also, in data set [1] (setting [7]), the “Split Luciferase Assay Z-score Set 2” value is on record as -5.17. The “Split Luciferase Assay %Lum Set 2” value in data set [1] (setting [8]) is on record as 36.41%. Besides, in data set [1] (setting [9]), the “Split Luciferase Assay %Lum Avg” value came out at 30.33%. In addition, the “Toxicity Assay Z-score (CTB cell viability)” value (“Toxicity Assay Z-score” for short) in data set [2] (16 h, 30 µM) is on record as -0.85. Besides, the viability at 16 h, 30 µM in data set [3] turned out to be 93.9%. Also, in data set [4], the “Luciferase Assay % Lum (full-length luciferase counter-screen)” value is reported as 54.78% and the “Luciferase Assay Z-score (full-length luciferase counter-screen)” value is reported as -5.79.

Take `CC(C)Cn1cnc2c(N)nc3ccccc3c21` [Imiquimod]: in data set [1] (setting [5]), the “Split Luciferase Assay Z-score Set 1” value is recorded as 1.35. For the same compound, the “Split Luciferase Assay % Lum Set 1” value in data set [1] (setting [6]) is listed as 116.65%. Also, in data set [1] (setting [7]), the “Split Luciferase Assay Z-score Set 2” value came to 1.01. Besides, the “Split Luciferase Assay %Lum Set 2” value in data set [1] (setting [8]) is 112.35%. Also, the “Split Luciferase Assay %Lum Avg” value in data set [1] (setting [9]) was 114.50%. Besides, in data set [2] (16 h, 30 µM), the “Toxicity Assay Z-score” value stood at 1.03. The viability at 16 h, 30 µM in data set [3] came out at 107%. Further, in data set [4], the “Luciferase Assay % Lum (full-length luciferase counter-screen)” value is 104.72% and the “Luciferase Assay Z-score (full-length luciferase counter-screen)” value was 0.60.

For `CC[C@]1(O)C[C@@H]2CN(CCc3c([nH]c4ccccc34)[C@@](C(=O)OC)(c3cc4c(cc3OC)N(C)[C@H]3[C@@](O)(C(=O)OC)[C@H](OC(C)=O)[C@]5(CC)C=CCN6CC[C@]43[C@@H]65)C2)C1` [Vinblastine sulfate], in data set [1] (setting [5]), the “Split Luciferase Assay Z-score Set 1” value stood at 9.52. Besides, the “Split Luciferase Assay % Lum Set 1” value in data set [1] (setting [6]) stood at 217.75%. Moreover, in data set [1] (setting [7]), the “Split Luciferase Assay Z-score Set 2” value stood at 5.32. The “Split Luciferase Assay %Lum Set 2” value in data set [1] (setting [8]) is listed as 165.41%. For the same compound, in data set [1] (setting [9]), the “Split Luciferase Assay %Lum Avg” value is given as 191.58%. Further, the “Toxicity Assay Z-score” value in data set [2] (16 h, 30 µM) is listed as 1.05. Further, in data set [3], the viability at 16 h, 30 µM was found to be 108%. Further, in data set [4], the “Luciferase Assay % Lum (full-length luciferase counter-screen)” value is reported as 109.75% and the “Luciferase Assay Z-score (full-length luciferase counter-screen)” value amounted to 1.25.

Regarding `Cc1c[nH]c(-c2cnc(NCCNc3ccc(C#N)cn3)nc2-c2ccc(Cl)cc2Cl)n1` [CHIR 99021], the “Split Luciferase Assay Z-score Set 1” value in data set [1] (setting [5]) was -4.98. In addition, the “Split Luciferase Assay % Lum Set 1” value in data set [1] (setting [6]) was determined as 38.37%. For the same compound, the “Split Luciferase Assay Z-score Set 2” value in data set [1] (setting [7]) is listed as -5.60. In addition, the “Split Luciferase Assay %Lum Set 2” value in data set [1] (setting [8]) is on record as 31.21%. In addition, in data set [1] (setting [9]), the “Split Luciferase Assay %Lum Avg” value was 34.79%. Besides, in data set [2] (16 h, 30 µM), the “Toxicity Assay Z-score” value turned out to be 1.07. The viability at 16 h, 30 µM in data set [3] came to 108%. In addition, in data set [4], the “Luciferase Assay % Lum (full-length luciferase counter-screen)” value was 70.15% and the “Luciferase Assay Z-score (full-length luciferase counter-screen)” value is listed as -3.82.

Take `O=P1(NCCCl)OCCCN1CCCl` (stereo not drawn) [Ifosfamide]: the “Split Luciferase Assay Z-score Set 1” value in data set [1] (setting [5]) turned out to be 1.26. In addition, the “Split Luciferase Assay % Lum Set 1” value in data set [1] (setting [6]) is 115.56%. In addition, the “Split Luciferase Assay Z-score Set 2” value in data set [1] (setting [7]) is given as -0.01. Besides, in data set [1] (setting [8]), the “Split Luciferase Assay %Lum Set 2” value is 99.87%. In addition, the “Split Luciferase Assay %Lum Avg” value in data set [1] (setting [9]) is listed as 107.71%. Besides, the “Toxicity Assay Z-score” value in data set [2] is recorded as 0.82. Besides, the viability in data set [3] came to 106%. For the same compound, in data set [4], the “Luciferase Assay % Lum (full-length luciferase counter-screen)” value turned out to be 96.59% and the “Luciferase Assay Z-score (full-length luciferase counter-screen)” value is -0.44.

On to `O=NN(CCCl)C(=O)NCCCl` [Carmustine], for which, in data set [1], the “Split Luciferase Assay % Lum Set 1” value was determined as 106.86%, the “Split Luciferase Assay %Lum Avg” value is 104.93% and the “Split Luciferase Assay %Lum Set 2” value amounted to 102.99%. In addition, the “Split Luciferase Assay Z-score Set 1” value in data set [1] (setting [5]) is on record as 0.55. In data set [1] (setting [7]), the “Split Luciferase Assay Z-score Set 2” value stood at 0.24. Also, in data set [2], the “Toxicity Assay Z-score” value is given as 2.39. The viability in data set [3] came out at 117%. In addition, in data set [4], the “Luciferase Assay % Lum (full-length luciferase counter-screen)” value turned out to be 102.90% and the “Luciferase Assay Z-score (full-length luciferase counter-screen)” value came out at 0.37.

Source of the values: publication PMC6858373 (Scientific Reports, 2019).
